Data: patent US20110124626A1, “BENZAZEPINE DERIVATIVES AND THEIR USE AS HISTAMINE H3 ANTAGONISTS” (TAKEDA PHARMACEUTICAL COMPANY LIMITED, priority 2008, published 2011)

Columns and labels:
[1] = target: T1, human H3 receptor (Homo sapiens, UniProt Q9Y5N1); test: In vitro H3 functional assay (cAMP response element driven luciferase reporter); assay type: cell-based; conditions: CHO(dhfr+)-cre-luc cells expressing human H3 receptor; RαMH 10 nM, forskolin 1 μM; read-out: hH3 functional IC50
T1 construct: expressed in transfected cells
Experimental: The functional activity of compounds at the H3 receptor was determined by measuring changes in the level of intracellular cAMP using a cAMP response element driven luciferase reporter assay. The changes in luciferase expression were monitored by a luminescence plate reader, Analyst HT (MDS Analytical). Increases in intracellular cAMP were readily detected upon activation of protein kinase A by forskolin (Sigma) and suppression of this response observed with the application of the H3 receptor agonist RαMH (Sigma).
CHO(dhfr^+)-cre-luc cells stably expressing human H3 receptor were routinely grown as monolayers in Minimal Essential Medium α (MEMα) (Invitrogen) supplemented with 10% dialysed FBS (Hyclone), in 5% CO2 at 37° C. 48 hours prior to assay, cells were seeded in clear-base white walled 384-well plates (Corning) at a density of 5000 cells/well. On the day of assay, growth media was removed and replaced with […] of assay buffer (MEMα, 5 mg/ml fatty acid free BSA (Sigma)) per well. Cells were then incubated for 30 minutes at 37° C., 5% CO2. Compound was serially diluted in DMSO before being diluted 1:10 with assay buffer. 2.5 of compound diluted in assay buffer was added and cells incubated for 5 minutes at 37° C., 5% CO2. 2.5 μl of each reagent was then added in the following order: RαMH (10 nM), isobutylmethylxanthine (1-methyl-3-(2-methylpropyl)-7H-purine-2,6-dione; IBMX) (500 μM) (Sigma) and forskolin (1 μM). Cells were then incubated for 90 minutes at 37° C., 5% CO2, followed by 30 minutes at room temperature. At the end of incubation 25 μl of Steadylite reagent (Perkin Elmer) was added, plates were sealed and placed on a shaker for 5 minutes. The level of light output to determine the level of luciferase expression was then measured.
IC50 values for compounds were determined from ten point half log scale dose-response studies and represent the concentration of compound required to […] 50% inhibition of forskolin stimulated cells in the presence of RαMH alone. Curves were generated using the average of duplicate wells for each data point and analyzed using nonlinear regression of four parameter dose response.

[2] = target: T1, human H3 receptor; test: In vitro H3 binding assay (3H-N-α-methyl-histamine competition binding); conditions: membranes of CHO-K1 cells expressing human H3 receptor; 2 nM 3H-NαMH; read-out: hH3 binding IC50
Experimental: The ability of compounds to bind to the H3 receptor was determined by measuring the reduction in tritiated N-α-methyl-histamine (^3H—NαMH) binding in a competition binding assay. Changes in the levels of bound radio-label were monitored by scintillation counting with a Trilux Microbeta (Perkin Elmer).
Membranes were prepared from CHO-K1 cells stably expressing human H3 receptor; routinely grown as monolayers in Ham's F12 medium (Invitrogen) supplemented with 10% Foetal Clone 111 (Hyclone), 500 μg/ml G418 (Invitrogen), 5 μg/ml blasticidine S (Invivogen) and […] Gentamicin (Sigma) in 5% CO2 at 37° C. Cells were grown to 80-95% confluency, rinsed once with 1×PBS (Invitrogen) and detached by incubating with 1×PBS containing 0.02% EDTA (Sigma) for 10 minutes at room temperature. Cells were collected by centrifugation at 900×g, 4° C. for 10 minutes. Cells were rinsed once with 1×PBS and re-suspended in ice cold homogenisation buffer (50 mM Tris-HCl (pH 7.4), 2.5 mM EDTA, 5 mM MgCl2, 200 mM Sucrose) at 1×10^7 cells/ml and kept on ice. Cells were homogenised on ice and debris removed by centrifugation at 500×g, 4° C. for 5 minutes. The resulting supernatant was centrifuged at 75,600×g, 4° C. for 60 minutes. Membranes were suspended in homogenisation buffer, protein concentration was determined (BCA Protein Assay kit (Pierce)), diluted to 2.2 mg/ml, dispensed into 1 ml aliquots and stored at −80° C.
Membranes were thawed on ice, sonicated with 4 cycles of 20 pulses (50% amplitude, 0.5 pulse) (UP200S Hielscher) on ice, diluted in assay buffer (50 mM Tris-HCl (pH7.4), 5 mM MgCl2) to 62.5 μg/ml. Compound was serially diluted in DMSO before being diluted 1:10 with assay buffer. 5 μg of membrane in 80 μl of assay buffer was added per well of a 96 well polystyrene plate (Corning). […] of compound was added per well. The assay was initiated by the addition of 10 μl of 20 nM ^3H—NαMH per well and incubated for one hour at room temperature with shaking. Total binding was determined in the presence of 1% DMSO and non-specific binding was determined by the inclusion of 1 μM R-α-methyl-histamine (RαMH). Incubations were then filtered through filtermat A (Perkin Elmer) and washed three times with assay buffer. Filtermats were dried at 42° C. for two hours, scintillant added and the level of bound radioactivity determined.
IC50 values for compounds were determined from seven point log scale dose-response studies and represent the concentration of compound required to inhibit 50% of the specific binding of 2 nM ^3H—NαMH (difference between total and non-specific binding). Curves were generated using the average of duplicate wells for each data point and analyzed using nonlinear regression of sigmoidal dose response (variable slope).

T1 sequence (Q9Y5N1 whole entry): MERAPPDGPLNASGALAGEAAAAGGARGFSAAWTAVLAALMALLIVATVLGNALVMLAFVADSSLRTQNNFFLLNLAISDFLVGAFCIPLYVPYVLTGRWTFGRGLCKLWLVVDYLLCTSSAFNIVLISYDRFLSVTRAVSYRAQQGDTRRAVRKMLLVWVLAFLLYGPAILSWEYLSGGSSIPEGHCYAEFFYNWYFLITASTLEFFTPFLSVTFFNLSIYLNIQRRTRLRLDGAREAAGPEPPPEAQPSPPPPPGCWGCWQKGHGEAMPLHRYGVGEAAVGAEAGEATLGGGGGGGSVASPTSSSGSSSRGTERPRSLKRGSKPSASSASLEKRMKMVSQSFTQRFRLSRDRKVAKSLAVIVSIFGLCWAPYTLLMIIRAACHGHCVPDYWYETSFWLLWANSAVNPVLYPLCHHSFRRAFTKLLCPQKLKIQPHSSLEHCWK

SMILES | IC50 [1] [nM] | IC50 [2] [nM]
CCC(=O)N1CCC(CC(O)Cc2ccc3c(c2)CCN(C2CCC2)CC3)CC1 (single isomer, unassigned) [Example 233, 1-(4-(3-(3-cyclobutyl-2,3,4,5-tetrahydro-1H-benzo[d]azepin-7-yl)-2-hydroxypropyl)piperidin-1-yl)propan-1-one] | 16 | 2
CCC(=O)N1CCC[C@H](CC(O)Cc2ccc3c(c2)CCN(C2CCC2)CC3)C1 (single isomer, unassigned) [Example 251] | 6 | 11
CCC(=O)N1CCC(C)(C(O)Cc2ccc3c(c2)CCN(C2CCC2)CC3)CC1 (single isomer, unassigned) [Example 257, 1-{4-[2-(3-cyclobutyl-2,3,4,5-tetrahydro-1H-3-benzazepin-7-yl)-1-hydroxyethyl]-4-methylpiperidin-1-yl}propan-1-one] | 7 | 25
CNC(=O)c1ccc(CNC(=O)c2ccc3c(c2)CCN(C2CCC2)CC3)cc1 [Example 53, 3-Cyclobutyl-N-(4-(methylcarbamoyl)benzyl)-2,3,4,5-tetrahydro-1H-benzo[d]azepine-7-carboxamide] | 6 | 51
O=C(NCc1cccc(C(F)(F)F)c1)c1ccc2c(c1)CCN(C1CCC1)CC2 [Example 59, 3-Cyclobutyl-N-(3-(trifluoromethyl)benzyl)-2,3,4,5-tetrahydro-1H-benzo[d]azepine-7-carboxamide] | 3 | 6
O=C(NCc1cccc(-n2cncn2)c1)c1ccc2c(c1)CCN(C1CCC1)CC2 [Example 68, N-(3-(1H-1,2,4-Triazol-1-yl)benzyl)-3-cyclobutyl-2,3,4,5-tetrahydro-1H-benzo[d]azepine-7-carboxamide] | 3 | 1
O=C(NCc1cccc(-c2nccs2)c1)c1ccc2c(c1)CCN(C1CCC1)CC2 [Example 69, 3-Cyclobutyl-N-(3-(thiazol-2-yl)benzyl)-2,3,4,5-tetrahydro-1H-benzo[d]azepine-7-carboxamide] | 0.5 | 2
O=C(NCc1cccc(Cn2cccn2)c1)c1ccc2c(c1)CCN(C1CCC1)CC2 [Example 70, N-(3-((1H-Pyrazol-1-yl)methyl)benzyl)-3-cyclobutyl-2,3,4,5-tetrahydro-1H-benzo[d]azepine-7-carboxamide] | 3 | 5
O=C(NCc1c[nH]c2ccccc12)c1ccc2c(c1)CCN(C1CCC1)CC2 [Example 72, N-((1H-Indol-3-yl)methyl)-3-cyclobutyl-2,3,4,5-tetrahydro-1H-benzo[d]azepine-7-carboxamide] | 2 | 1
Cn1nc(CNC(=O)c2ccc3c(c2)CCN(C2CCC2)CC3)c2ccccc21 [Example 73, 3-Cyclobutyl-N-((1-methyl-1H-indazol-3-yl)methyl)-2,3,4,5-tetrahydro-1H-benzo[d]azepine-7-carboxamide] | 1 | 12
O=C(NCc1ccc2[nH]ccc2c1)c1ccc2c(c1)CCN(C1CCC1)CC2 [Example 74, N-((1H-Indol-5-yl)methyl)-3-cyclobutyl-2,3,4,5-tetrahydro-1H-benzo[d]azepine-7-carboxamide] | 1 | 3

Other lines, results leading:

IC50 [1] [nM] | IC50 [2] [nM] | SMILES
10 | 10 | CC(=O)N1CCC(C(O)Cc2ccc3c(c2)CCN(C2CCC2)CC3)CC1 (racemic) [Example 146, 1-(4-(2-(3-cyclobutyl-2,3,4,5-tetrahydro-1H-benzo[d]azepin-7-yl)-1-hydroxyethyl)piperidin-1-yl)ethanone]
0.7 | 1 | Cn1nccc1CNC(=O)c1ccc2c(c1)CCN(C1CCC1)CC2 [Example 1, 3-cyclobutyl-N-((1-methyl-1H-pyrazol-5-yl)methyl)-2,3,4,5-tetrahydro-1H-benzo[d]azepine-7-carboxamide]
31 | 22 | O=C(NCC1CCNCC1)c1ccc2c(c1)CCN(C1CCC1)CC2 [Example 5, 3-Cyclobutyl-N-(piperidin-4-ylmethyl)-2,3,4,5-tetrahydro-1H-benzo[d]azepine-7-carboxamide]
3 | 11 | O=C(NCc1cccnc1)c1ccc2c(c1)CCN(C1CCCC1)CC2 [Example 20, 3-Cyclopentyl-N-(pyridin-3-ylmethyl)-2,3,4,5-tetrahydro-1H-benzo[d]azepine-7-carboxamide]
2 | 11 | O=C(NCc1ccccc1)c1ccc2c(c1)CCN(C1CCC1)CC2 [Example 23, N-Benzyl-3-cyclobutyl-2,3,4,5-tetrahydro-1H-benzo[d]azepine-7-carboxamide]
16 | 44 | CNC(=O)c1ccc2c(c1)CCN(C1CCC1)CC2 [Example 24, 3-Cyclobutyl-N-methyl-2,3,4,5-tetrahydro-1H-benzo[d]azepine-7-carboxamide]
8 | 13 | O=C(NC1CCCC1)c1ccc2c(c1)CCN(C1CCC1)CC2 [Example 29, 3-Cyclobutyl-N-cyclopentyl-2,3,4,5-tetrahydro-1H-benzo[d]azepine-7-carboxamide]
5 | 26 | O=C(NCC1CCCCC1)c1ccc2c(c1)CCN(C1CCC1)CC2 [Example 34, 3-Cyclobutyl-N-(cyclohexylmethyl)-2,3,4,5-tetrahydro-1H-benzo[d]azepine-7-carboxamide]
1 | 11 | O=C(NCC1CCOCC1)c1ccc2c(c1)CCN(C1CCC1)CC2 [Example 35, 3-Cyclobutyl-N-((tetrahydro-2H-pyran-4-yl)methyl)-2,3,4,5-tetrahydro-1H-benzo[d]azepine-7-carboxamide]
2 | 12 | O=C(NCC1CCCO1)c1ccc2c(c1)CCN(C1CCC1)CC2 (stereo not drawn) [Example 36, 3-cyclobutyl-N-((tetrahydrofuran-2-yl)methyl)-2,3,4,5-tetrahydro-1H-benzo[d]azepine-7-carboxamide]
2 | 3 | O=C(NCc1ccncc1)c1ccc2c(c1)CCN(C1CCC1)CC2 [Example 40, 3-Cyclobutyl-N-(pyridin-4-ylmethyl)-2,3,4,5-tetrahydro-1H-benzo[d]azepine-7-carboxamide]
30 | 9 | O=C(NCc1cccnc1)c1ccc2c(c1)CCN(C1CCC1)CC2 [Example 42, 3-Cyclobutyl-N-(pyridin-3-ylmethyl)-2,3,4,5-tetrahydro-1H-benzo[d]azepine-7-carboxamide]
3 | 14 | Nc1ncccc1CNC(=O)c1ccc2c(c1)CCN(C1CCC1)CC2 [Example 44, N-((2-Aminopyridin-3-yl)methyl)-3-cyclobutyl-2,3,4,5-tetrahydro-1H-benzo[d]azepine-7-carboxamide]
